The record followed here is US20240010606A1, “FUMARATE DERIVATIVES AND THEIR MEDICAL USE” (Sitryx Therapeutics Limited, priority 2020, published 2024).

In one series the test system is IL-1β. Briefly: THP-1 AlphaLISA IL-1β cytokine assay. It is filed as cell-based. The conditions noted are these: for IC50: Homo sapiens, differentiated THP-1 cells, Table 2, compounds of formula (II). As for the experimental part:
(§1) Biological Example 1—THP-1 AlphaLISA IL-1β and IL-6 Cytokine Assay Measuring Inhibitory Effects on IL-1, and IL-6 Cytokine Output from THP-1s The cytokine inhibition profiles of compounds of formula (I) were determined in a differentiated THP-1 cell assay. All assays were performed in RPMI-1640 growth medium (Gibco), supplemented with 10% fetal bovine serum (FBS; Gibco), 1% penicillin-streptomycin and 1% sodium pyruvate unless specified otherwise. The IL-1β and IL-6 cytokine inhibition assays were each run in a background of differentiated THP-1 cells as described below. All reagents described were from Sigma-Aldrich unless specified otherwise. Compounds were prepared as 10 mM DMSO stocks. THP-1 cells were expanded as a suspension up to 80% confluence in appropriate growth medium. Cells were harvested, suspended, and treated with an appropriate concentration of phorbol 12-myristate 13-acetate (PMA) over a 72 hr period (37° C./5% CO2). Following 72 hrs of THP-1 cell incubation, cellular medium was removed and replaced with fresh growth media containing 1% of FBS. Working concentrations of compounds were prepared separately in 10% FBS treated growth medium and pre-incubated with the cells for 30 minutes (37° C./5% CO2). Following the 30 minute compound pre-incubation, THP-1s were treated with an appropriate concentration of LPS and the THP-1s were subsequently incubated for a 24 hr period (37° C./5% CO2). An appropriate final concentration of Nigericin was then dispensed into the THP-1 plates and incubated for 1 hour (37° C./5% CO2) before THP-1 supernatants were harvested and collected in separate polypropylene 96-well holding plates. Reagents from each of the IL-1β and IL-6 commercial kits (Perkin Elmer) were prepared and run according to the manufacturer's instructions. Subsequently, fluorescence signal detection in a microplate reader was measured (EnVision® Multilabel Reader, Perkin Elmer). Percentage inhibition was calculated per cytokine by normalizing the sample data to the high and low controls used within each plate (+/−LPS respectively). Percentage inhibition was then plotted against compound concentration and the 50% inhibitory concentration (IC50) was determined from the resultant concentration-response curve.
On the technique in general: In Alpha technology, singlet oxygen from a donor bead excites a nearby acceptor bead.

The subject of another series is IL-6. As to the kind of experiment: THP-1 AlphaLISA IL-6 cytokine assay. It is filed as cell-based. The conditions noted are these: Homo sapiens. As to the method:
as §1

Series [1] has as its system hepatocytes. As to the kind of experiment: Hepatocyte stability assay, human. The class given is in vitro ADME. The conditions noted are these: 10 μM compound, Table 6. The source says:
(§2) Biological Example 3—Hepatocyte Stability Assay
(§3) Defrosted cryo-preserved hepatocytes (viability >70%) are used to determine the metabolic stability of a compound via calculation of intrinsic clearance (CIint; a measure of the removal of a compound from the liver in the absence of blood flow and cell binding). Clearance data are particularly important for […] as they can be used in combination with in vivo data to predict the half-life and oral bioavailability of a drug.
(§4) The metabolic stability in hepatocytes assay involves a time-dependent reaction using both positive and negative controls. The cells must be pre-incubated at 37° C. then spiked with test compound (and positive control); samples taken at pre-determined time intervals are analysed to monitor the change in concentration of the initial drug compound over 60 minutes. A buffer incubation reaction (with no hepatocytes present) acts as a negative control and two cocktail solutions, containing compounds with known high and low clearance values (verapamil/7-hydroxycoumarin and propranolol/diltiazem), act as positive controls. • 1. The assay is run with a cell concentration of 0.5×10^6 cells/mL in Leibovitz buffer. • 2. All compounds and controls are run in duplicate. • 3. Compound concentration is 10 μM. • 4. All compounds and controls are incubated with both cells and buffer to show turnover is due to hepatic metabolism. • 5. All wells on the incubation plate will have 326.7 μL of either cells or buffer added. • 6. Prior to assay, cell and buffer-only incubation plates are preincubated for 10 mins at 37° C. • 7. The assay is initiated by adding compounds, 3.3 μL of 1 mM in 10% DMSO-90% Buffer; final DMSO concentration is 0.1%. • 8. Samples are taken at regular timepoints (0, 5, 10, 20, 40, 60 min) until 60 mins. • 9. Sample volume is 40 μL and it is added to 160 μL of crash solvent (acetonitrile with internal standard) and stored on ice. • 10. At the end of the assay, the crash plates are centrifuged at 3500 rpm for 20 mins at 4° C. • 11. 80 μL of clear supernatant is removed and mixed with 80 μL of deionised water before being analysed by LC-MS/MS.
(§5) Raw LC-MS/MS data are exported to, and analysed in, Microsoft Excel for determination of intrinsic clearance. The percentage remaining of a compound is monitored using the peak area of the initial concentration as 100%. Intrinsic clearance and half-life values are calculated using a graph of the natural log of percentage remaining versus the time of reaction in minutes. Half-life (min) and intrinsic clearance (CIint in μL min^−1 10^−6 cells) values are calculated using the gradient of the graph (the elimination rate constant, k) and Equations 1 and 2.

For series [2], the system named is hepatocytes. As to the kind of experiment: Hepatocyte stability assay, mouse. It is filed as in vitro ADME. The conditions noted are these: 10 μM compound, Table 6.
Source text: as §2, §3, §4, §5

The next series relates to NRF2. Briefly: NRF2 activation assay (DiscoverX PathHunter NRF2 translocation kit, U2OS cells). It is filed as cell-based. As to the method: Biological Example 2—NRF2 Activation Assay Measuring Compound Activation Effects on the Anti-Inflammatory Transcription Factor NRF2 in DiscoverX PathHunter NRF2 Translocation Kit Potency and efficacy of compounds of formula (I) against the target of interest to activate NRF2 (nuclear factor erythroid 2-related factor 2) were determined using the PathHunter NRF2 translocation kit (DiscoverX). The NRF2 translocation assay was run using an engineered recombinant cell line, utilising enzyme fragment complementation to determine activation of the Keap1-NRF2 protein complex and subsequent translocation of NRF2 into the nucleus. Enzyme activity was quantified using a chemiluminescent substrate consumed following the formation of a functional enzyme upon PK-tagged NRF2 translocation into the nucleus. Additionally, a defined concentration of dimethyl fumarate was used as the ‘High’ control to normalise test compound activation responses to. U2OS PathHunter eXpress cells were thawed from frozen prior to plating. Following plating, U2OS cells were incubated for 24 hrs (37° C./5% CO2) in commercial kit provided cell medium. Following 24 hrs of U2OS incubation, cells were directly treated with an appropriate final concentration of compound. Following compound treatment, the U2OS plates were incubated for a further 6 hours (37° C./5% CO2) before detection reagent from the PathHunter NRF2 commercial kit was prepared and added to test plates according to the manufacturer's instructions. Subsequently, the luminescence signal detection in a microplate reader was measured (PHERAstar®, BMG Labtech). Percentage activation was calculated by normalising the sample data to the high and low controls used within each plate (+/−DMF). Percentage activation/response was then plotted against compound concentration and the 50% activation concentration (EC50) was determined from the plotted concentration-response curve.

Where [3] appears, read: THP-1, differentiated THP-1 cells, Table 2, compounds of formula (II).
[4] abbreviates: +GSH, Table 4, compounds of formula (II).
Setting [5] is: −GSH, Table 4, compounds of formula (II).

Structures are written as SMILES. Counter-ions that a name gives are not always drawn.

The term IC50 denotes the concentration needed to halve the response being measured. Read a high IC50 as weaker potency. In the case of `N#C[C@H]1C[C@](OC(=O)/C=C/C(=O)O)(c2ccc(C(F)(F)F)cc2)C1` (single isomer, unassigned) [Intermediate 34, (E)-4-((cis)-3-cyano-1-(4-(trifluoromethyl)phenyl)cyclobutoxy)-4-oxobut-2-enoic acid], the IC50 with IL-1β was 6 to 30 µM; with IL-6 (setting [3]), 30 to 50 µM.

In the case of `O=C(O)/C=C/C(=O)OC(c1ccc(C(F)(F)F)cc1)C(F)(F)F` (single isomer, unassigned) [Intermediate 45, (E)-4-oxo-4-(2,2,2-trifluoro-1-(4-(trifluoromethyl)phenyl)ethoxy)but-2-enoic acid], in the series with hepatocytes [1], the CIint entry is given as “++ (++ means >30-110)” and the T½ entry was “++ (++ means 5-29)”. In the series with hepatocytes [2], the CIint result is “+ (+ means >110-277)” and the T½ stood at 4 min.

The term EC50 denotes the concentration giving half of the maximal effect. Regarding `CC1(OC(=O)/C=C/C(=O)O)CCC1` [Intermediate 4, (E)-4-(1-methylcyclobutoxy)-4-oxobut-2-enoic acid], the EC50 is 23 to 48.4 µM with NRF2 (setting [4]) and under 23 µM in the series with NRF2 (setting [5]). Further, the “NRF2 activation Emax” value was “+ (+ means >50-<87%)” in the series on NRF2 (setting [4]) and “+++ (+++ means >114-150%)” in the series with NRF2 (setting [5]). This compound also returned an IC50 in the series with IL-1β of over 100 µM. Besides, the “activity in the THP-1 cytokine assays (in words)” value in the series with IL-1β (THP-1 IL-1β and IL-6 assays) is on record as “not active”.

As to `CCCCCCCCOC(=O)/C=C/C(=O)O` [Intermediate 5, Octyl Fumarate], the EC50 in the series with NRF2 (setting [4]) and in the series on NRF2 (setting [5]) was under 23 µM each time. For the same compound, the “NRF2 activation Emax” value in the series on NRF2 (setting [4]) and with NRF2 (setting [5]) was “++++ (++++ means >150%)” throughout.

With `O=C(O)/C=C/C(=O)OC1(c2ccc(C(F)(F)F)cn2)CCC1` [Intermediate 9, (E)-4-oxo-4-(1-(5-(trifluoromethyl)pyridin-2-yl)cyclobutoxy)but-2-enoic acid], the IC50 in the series on IL-1β and with IL-6 (setting [3]) was 6 to 30 µM in each case.

For `O=C(O)/C=C/C(=O)OC1(c2ccccc2C(F)(F)F)CCC1` [Intermediate 11, (E)-4-oxo-4-(1-(2-(trifluoromethyl)phenyl)cyclobutoxy)but-2-enoic acid], the IC50 with IL-1β was 50 to 100 µM; with IL-6 (setting [3]) it was over 100 µM.

In the case of `O=C(O)/C=C/C(=O)OC1(c2ccc(Cl)cc2)CCC1` [Intermediate 13, (E)-4-(1-(4-chlorophenyl)cyclobutoxy)-4-oxobut-2-enoic acid], the IC50 in the series with IL-1β and in the series on IL-6 (setting [3]) was 6 to 30 µM in each case.

`O=C(O)/C=C/C(=O)OC1(c2ccc(C(F)(F)F)nc2)CCC1` [Intermediate 15, (E)-4-oxo-4-(1-(6-(trifluoromethyl)pyridin-3-yl)cyclobutoxy)but-2-enoic acid]: the half-maximal inhibitory concentration (IC50) with IL-1β was 30 to 50 µM; with IL-6 (setting [3]), over 100 µM.

`O=C(O)/C=C/C(=O)OC1(c2ccc(Br)cn2)CCC1` [Intermediate 23, (E)-4-(1-(5-bromopyridin-2-yl)cyclobutoxy)-4-oxobut-2-enoic acid]: the IC50 with IL-1β fell in the range of 6 to 30 µM; in the series with IL-6 (differentiated THP-1 cells, Table 2, compounds of formula (II)), 6 to 30 µM.

In the case of `O=C(O)/C=C/C(=O)OC1(c2ccc(Cl)cn2)CCC1` [Intermediate 24, (E)-4-(1-(5-chloropyridin-2-yl)cyclobutoxy)-4-oxobut-2-enoic acid], the IC50 in the series with IL-1β lay within 30 to 50 µM; in the series on IL-6 (setting [3]), 6 to 30 µM.

`N#Cc1ccc(C2(OC(=O)/C=C/C(=O)O)CCC2)cc1` [Intermediate 27, (E)-4-(1-(4-cyanophenyl)cyclobutoxy)-4-oxobut-2-enoic acid]: the IC50 lay within 50 to 100 µM with IL-1β and 6 to 30 µM with IL-6 (setting [3]).

On to `O=C(O)/C=C/C(=O)OC1(c2cc(F)c(F)c(F)c2)CCC1` [Intermediate 28, (E)-4-oxo-4-(1-(3,4,5-trifluorophenyl)cyclobutoxy)but-2-enoic acid], for which the IC50 in the series on IL-1β and in the series with IL-6 (setting [3]) was 6 to 30 µM each time.

Take `O=C(O)/C=C/C(=O)OC1(c2ccc(C(F)F)cc2)CCC1` [Intermediate 31, (E)-4-(1-(4-(difluoromethyl)phenyl)cyclobutoxy)-4-oxobut-2-enoic acid]: the IC50 with IL-1β and in the series with IL-6 (setting [3]) was 6 to 30 µM each time.

For `O=C(O)/C=C/C(=O)OC1(c2ccc(C(F)(F)F)cc2)CCOCC1` [Intermediate 35, (E)-4-oxo-4-((4-(4-(trifluoromethyl)phenyl)tetrahydro-2H-pyran-4-yl)oxy)but-2-enoic acid], the IC50 with IL-1β is 50 to 100 µM; in the series on IL-6 (setting [3]) it was over 100 µM.

For the compound `O=C(O)/C=C/C(=O)OC1(c2ncc(C(F)(F)F)cn2)CCC1` [Intermediate 39, (E)-4-oxo-4-(1-(5-(trifluoromethyl)pyrimidin-2-yl)cyclobutoxy)but-2-enoic acid], the IC50 with IL-1β and in the series on IL-6 (setting [3]) was 30 to 50 µM in each case.

In the case of `COc1cc(OC)cc(C2(OC(=O)/C=C/C(=O)O)CCC2)c1` [Intermediate 40, (E)-4-(1-(3,5-dimethoxyphenyl)cyclobutoxy)-4-oxobut-2-enoic acid], the IC50 with IL-1β is over 100 µM; in the series with IL-6 (setting [3]) it was 30 to 50 µM.

For the compound `COC(=O)/C=C/C(=O)OC` [dimethyl fumarate, Dimethyl fumarate, reference compound], the EC50 is over 100 µM with NRF2 (+GSH, Table 3) and 6.1 µM in the series on NRF2 (−GSH, Table 3). Also, the “NRF2 activation Emax” value worked out at 17.1% in the series with NRF2 (+GSH, normalised to dimethyl fumarate high control, Table 3) and 100% with NRF2 (−GSH, normalised to dimethyl fumarate high control, Table 3). Also, in the series on IL-6 (THP-1, differentiated THP-1 cells, LPS then Nigericin, Table 1), the IC50 worked out at 9.3 µM.

Consider `COC(=O)/C=C/C(=O)O` [monomethyl fumarate, Monomethyl fumarate, reference compound], for which the concentration giving a half-maximal response (EC50) in the series with NRF2 (setting [4]) was found to be 48.4 µM; with NRF2 (setting [5]), 23 µM. Moreover, the “NRF2 activation Emax” value in the series on NRF2 (setting [4]) was 87%; with NRF2 (setting [5]), 114%. Besides, the IC50 in the series on IL-1β and in the series on IL-6 (setting [3]) was over 100 µM each time.
